Assay results: patent US7511036B2, “Dihydrothiazine prodrugs of thiazolium agents” (Synvista Therapeutics, Inc., priority 2003, dated 2009)
Structures can show the parent of a compound that is named as a salt.

Assays:
Rhesus monkeys [1] = details: pilocarpine-stimulated accommodation; see the '112 application; cited from earlier work
Type IV collagen = experiment: In situ hybridization studies, Type IV collagen expression; format: in vivo
From the text: (§1) Cardiovascular risk correlates more closely with the systolic and the pulse pressure than with the diastolic pressure. In diabetic patients, the cardiovascular risk profile of diabetic patients is strongly correlated to duration of diabetes, glycemic control and blood pressure. Structural matrix proteins contribute to the function of vessels and the heart, and changes in the physical behavior of cardiovascular walls are believed to be important determinants of circulatory function. In elderly individuals, the loss of compliance in the aorta leads to systolic hypertension and isolated systolic hypertension, which in turn expands the arterial wall and thereby diminishes the dynamic range of elasticity. […] These studies indicate that prodrugs of such thiazolium compounds should have a similar effect.

[2] = tested on: elderly patients with pulse pressures greater than 60 mm Hg; experiment: Phase IIa clinical trial; format: in vivo, human; details: for left ventricular mass: Phase IIa clinical trial, echocardiography
From the text: as §1
Pulse pressure is the difference between systolic and diastolic blood pressure. In a young human, systolic pressure is typically 120 mm Hg and diastolic pressure is 80 mm Hg, resulting in a pulse pressure of 40 mm Hg. With age, in many individuals pulse pressure increases, largely due to the increase in systolic pressure that results from stiff vessel disease. In individuals with pulse pressure greater than 60 mm Hg there is an increased risk of death from cardiovascular morbidities. […] This decrease in pulse pressure was believed to be due primarily to the effect of the agent on lowering the systolic blood pressure.
When the heart pumps blood into the vascular system, the ability of the arteries to expand helps to push blood through the body. When arteries become stiff, as they do in the natural process of aging, the ability of the arteries to expand is diminished which also has consequences for the heart. The heart has to work harder to pump the blood into the stiff arteries, and it eventually hypertrophies (enlarges in size) to accomplish this. A hypertrophied heart is an inefficient pump, and is one of the disorders that leads to congestive heart failure. […] Such a compound can be provided by administration of an N-formyl thiazine compound, (i.e., 2-hydroxy-5,6-dimethyl-2-phenyl-2,3-dihydro-(1,4)thiazine-4-carbaldehyde) and conversion of the compound under, for example, acidic conditions in the stomach, to the corresponding thiazolium salt. The potential clinical benefit of this is to lessen the effort that the heart must expend to push blood throughout the body. The effect is also believed to contribute to preventing hypertrophy and subsequent inefficiency of the heart, which inefficiency would contribute to congestive heart failure.
Atherosclerosis is a disease that involves deposition of blood lipids in plaque in the arteries throughout the body. In coronary arteries, accumulation of plaque progressively leads to reduced coronary flow, with occlusion of the arteries causing focal death of cardiac tissue (myocardial infarction, heart attack). If the amount of tissue that dies is large enough, death ensues. […] Reducing local deposits of plaque should eventually lessen the risk of myocardial infarction and death due to heart attacks.

Rhesus monkeys [3] = details: drug treated vs. control eye, baseline and pilocarpine-stimulated; see the '112 application; cited from earlier work
[4] = tested on: collagen in cardiovascular tissues; experiment: Mass of collagen in cardiovascular tissues after treatment; details: in vivo
From the text: as §1

TGFbeta = experiment: In situ hybridization studies, TGFbeta expression; format: in vivo
From the text: as §1

dog model for diabetes = experiment: Dog model for diabetes, indicators of ventricular elasticity; format: in vivo; details: indicator of ventricular elasticity
From the text: as §1

[5] = Conversion of dihydrothiazine to thiazolium chloride under acidic conditions; format: physicochemical
Protocol: The following experiment provides evidence that thiazine structures related to compound la can be converted under acidic conditions to thiazolium structures, and thus can serve as pro-drug forms of thiazolium agents.
Compound Ia (2.48 mmol, 0.620 g) was weighed into a 100 mL round bottom flask equipped with magnetic stir bar. Methanol (40 mL) was added, and the solution was stirred until all solid was dissolved. Aqueous hydrochloric acid was added (1N, 3.968 mmol, 4.0 mL) and the reaction solution stirred at ambient temperature for 48 hours. The methanol was removed in vacuo, and the residue was diluted with 25 mL of distilled water. The aqueous layer was extracted with methyl t-butyl ether (2×20 mL). The aqueous layer was concentrated to dryness in vacuo and the residue was crystallized with acetonitrile, methyl-t-butyl-ether (1:1). The crystals were collected via filtration to give 598 mg (90% yield) of 4,5-dimethyl-3-(2-oxo-2-phenylethyl)-thiazolium chloride. […]
In a 15 mL round bottom flask, stirred with a magnetic stirrer, was charged 36 mg (0.16 mmol) of compound Ib (prepared as described by Thornalley et al., Biochemical Pharmacology, vol. 57,pp 303-308, 1999), 2 mL of 1% hydrochloric acid and 2 mL of Ethyl Acetate. Since there was no reaction as monitored by HPLC, 2 mL of 5N Hydrochloric acid, and 2 mL of methanol was added, and the flask was heated to 35° C. […]

Compound	improvement in accommodation (Rhesus monkeys [1])	expression of Type IV collagen (Type IV collagen)	left ventricular mass [2]	left ventricular mass ([2]; listed as 3-[2-phenyl-2-oxoethyl]-4,5-dimethyl-thiazolium chloride salt)	stiffness of arteries (ratio of stroke volume (ml) to pulse pressure (mm Hg)) ([2]; Phase IIa clinical trials)	amount of circulating triglycerides (lipids) ([2]; Phase IIa trial)	pulse pressure ([2]; Phase IIa trial, elderly patients with pulse pressures greater than 60 mm Hg, statistically significant)	improvement in fluid outflow facility (ophthalmologic function) (Rhesus monkeys [3])	mass of collagen in cardiovascular tissues [4]	expression of TGFbeta (TGFbeta)	end diastolic pressure (dog model for diabetes)	end diastolic volume (dog model for diabetes)	conversion to thiazolium under acidic conditions ([5]; 1% hydrochloric acid and ethyl acetate, monitored by HPLC)	time until the conversion to thiazolium chloride was finished ([5]; after adding 5N hydrochloric acid and methanol, 35° C., HPLC)
Cc1sc[n+](CC(=O)c2ccccc2)c1C [3-[2-phenyl-2-oxoethyl]-4,5-dimethyl-thiazolium salt]	Improvement in accommodation has been illustrated	reduces the expression	reduction of left ventricular mass	reduce left ventricular mass	reverse the stiffness of arteries	increased the amount of circulating triglycerides	reduced pulse pressure	improvement has been illustrated	reduction in the mass of collagen	reduces the expression	returned to a value at about the mid-point between the disease impaired value and the value for control dogs	returned to a value at about the mid-point between the disease impaired value and the value for control dogs	–	–
O=CN1C=CSC(O)(c2ccccc2)C1 (centres unmarked) [Ib, 2-Hydroxy-2-Phenyl-2,3-Dihydro-(1,4)thiazine-4-carbaldehyde]	–	–	–	–	–	–	–	–	–	–	–	–	no reaction	about 15 h
